Assay results from PubChem BioAssay AID1996.
In brackets after ≈: the same amount, converted by molar mass.

Conditions: buffer; pH 7.4; 200.0 µM
For `O=C1C2C3C=CC(CC3)C2C(=O)N1c1ccc(F)cc1` (stereo not given), the solubility kinetic was 17.9 µg/mL (≈ 66 µM). In the case of `CC(CN1CCCCC1)OC(=O)/C=C/c1ccccc1.Cl` (stereo not given), the solubility kinetic is reported as greater than 46.5 µg/mL. Compound `Cn1c2c(c(=O)n(C)c1=O)C(c1cccc(F)c1)C(C#N)=C(N)O2` (stereo not given) has a solubility kinetic of 45.5 µg/mL (≈ 139 µM). For `OC1CCN(Cc2cccc3ccccc23)CC1`, the solubility kinetic was 29.3 µg/mL (≈ 121 µM). Work on `CCc1cc2cccc(C)c2nc1SCC(=O)NC1CCCC1` yielded a solubility kinetic of less than 0.4 µg/mL. With `COc1ccccc1CNC(=O)COC(=O)Cn1cnc2ccccc21` the solubility kinetic was 38.3 µg/mL (≈ 108 µM). Compound `COC(=O)c1sccc1NC(=O)c1cccc(F)c1` has a solubility kinetic of less than 0.6 µg/mL. With `COc1cc(CNCc2ccccc2)cc(Cl)c1OC.Cl` the solubility kinetic was 48.2 µg/mL. For `C#CCOc1ccc2ccccc2c1/C=C(/C#N)c1ccc(C(=O)O)cc1`, the solubility kinetic was 53 µg/mL (≈ 150 µM). `Cc1ccc(S(=O)(=O)NCCC(=O)Nc2cccc(S(=O)(=O)N3CCCC3)c2)cc1C` showed a solubility kinetic of 30.5 µg/mL (≈ 65.5 µM). With `COc1ccc(CNC(=O)COC(=O)[C@@H]2CCCN2C(=O)c2cccs2)cc1` the solubility kinetic was greater than 60.4 µg/mL. `O=C(NCc1ccccc1)c1cc[n+](Cc2ccccc2)cc1.[Cl-]` showed a solubility kinetic of 49.7 µg/mL. For `CC(=O)c1ccc(S(=O)(=O)N2CCC3(CC2)OCCO3)cc1`, the solubility kinetic was greater than 48.8 µg/mL. `N/C(=N\OC(=O)CSc1ccccc1)c1ccncc1` gave a solubility kinetic of 37.6 µg/mL (≈ 131 µM). Compound `Cc1ccc(S(=O)(=O)N2CCC(C)CC2)cc1` has a solubility kinetic of 28.6 µg/mL (≈ 113 µM). Work on `O=C1CSC(=S)N1c1cccc(F)c1` yielded a solubility kinetic of 1 µg/mL (≈ 4.4 µM). `CC(c1ccccc1)n1c(S(=O)(=O)O)nc2ccccc21` (stereo not given) gave a solubility kinetic of 43.7 µg/mL (≈ 145 µM). With `CCOc1ccc(NCCC(O)c2ccc(F)cc2)cc1` (stereo not given) the solubility kinetic was 30.9 µg/mL (≈ 107 µM). For `Nc1cc(C(F)(F)F)ccc1OCC1CCCO1` (stereo not given), the solubility kinetic was 32.8 µg/mL (≈ 126 µM). With `NS(=O)(=O)c1ccc(Nc2c([N+](=O)[O-])cncc2[N+](=O)[O-])cc1` the solubility kinetic was 50.4 µg/mL (≈ 149 µM). Work on `COc1ccc(-c2noc(CN(C)C(=O)c3ccco3)n2)cc1` yielded a solubility kinetic of 42.7 µg/mL (≈ 136 µM). For `C=C(C)CN(CC)C(=O)CC1C(=O)NCCN1CC(C)(C)C` (stereo not given), the solubility kinetic was 39.6 µg/mL (≈ 128 µM). With `CC12CCC(=O)N1C(C(=O)NCCc1ccc(F)cc1)CS2` (stereo not given) the solubility kinetic was 46.3 µg/mL (≈ 144 µM). For `CC1(C(=O)O)CCC(C(=O)Nc2ccc(F)cc2)C1(C)C` (stereo not given), the solubility kinetic was greater than 44 µg/mL. `O=C(OCCN=C1NS(=O)(=O)c2ccccc21)c1cccc([N+](=O)[O-])c1` gave a solubility kinetic of 3 µg/mL (≈ 7.99 µM). `CCCN1CCN(CCNC(=O)Nc2cc(C)ccc2C)CC1` gave a solubility kinetic greater than 47.8 µg/mL. `CCc1ccc(NC(=O)c2cnc(SC)nc2C)cc1` showed a solubility kinetic of 17.4 µg/mL (≈ 60.5 µM). In the case of `Cn1ccsc1=NC(=O)c1ccc(CS(C)(=O)=O)cc1`, the solubility kinetic is reported as greater than 46.6 µg/mL. With `Cc1nc(NC(=O)c2cnccn2)ccc1Br` the solubility kinetic was 7.8 µg/mL (≈ 26.6 µM). With `COc1ccc(C(=O)O)cc1S(=O)(=O)NC(C)C` the solubility kinetic was greater than 41 µg/mL. In the case of `O=C(NCc1ccccc1Cl)c1cc(=O)[nH]c2ccccc12`, the solubility kinetic is reported as 7.4 µg/mL (≈ 23.7 µM). Work on `CC(C)Oc1cccc(NC(=O)c2cnccc2C(F)(F)F)c1` yielded a solubility kinetic of 43.9 µg/mL (≈ 135 µM). `COc1ccc(CNC(=O)CC(C)c2ccccc2)cc1` (stereo not given) showed a solubility kinetic of 36.9 µg/mL (≈ 130 µM). With `O=C(O)c1cccc(S(=O)(=O)Nc2ccc(Oc3ccccc3)cc2)c1` the solubility kinetic was greater than 55.4 µg/mL. `Cc1cccc(OCc2nc3ccccc3n2C)c1.Cl` showed a solubility kinetic of 30.4 µg/mL. In the case of `COc1ccc(C)cc1NC(=S)N1CCN(c2ncccn2)CC1`, the solubility kinetic is reported as 47.4 µg/mL (≈ 138 µM). `NC(=O)c1ccc(Nc2ccc3nonc3c2[N+](=O)[O-])cc1` gave a solubility kinetic of 17.9 µg/mL (≈ 59.8 µM). `Br.Fc1ccccc1CNCc1ccc2c(c1)OCO2` gave a solubility kinetic greater than 51 µg/mL. `CCOc1cc(Cl)c(CNCCCN2CCOCC2)cc1OC` gave a solubility kinetic greater than 51.4 µg/mL. With `CCOc1ccc(NC(=S)NCc2cccnc2)cc1` the solubility kinetic was greater than 43.1 µg/mL. Work on `COc1ccc(CCNS(=O)(=O)c2cccc([N+](=O)[O-])c2)cc1` yielded a solubility kinetic of 42.8 µg/mL (≈ 127 µM). For `CCc1ccc(OC)c(S(=O)(=O)NCc2cccs2)c1`, the solubility kinetic was greater than 46.7 µg/mL. With `CC1CC(=O)Nc2ccccc2N1S(=O)(=O)c1cccs1` (stereo not given) the solubility kinetic was 17 µg/mL (≈ 52.7 µM). Compound `COc1ccc2nc(SCC(=O)NCC3CCCO3)c(C#N)cc2c1` (stereo not given) has a solubility kinetic of 5.2 µg/mL (≈ 14.5 µM). For `N#Cc1ncccc1CCc1cccc(Cl)c1`, the solubility kinetic was 22.4 µg/mL (≈ 92.3 µM). Work on `O=C(COC(=O)CSc1ccc(Cl)cc1)Nc1ccccc1` yielded a solubility kinetic greater than 50.4 µg/mL. Compound `FCCCOc1ccc(CN2CCN(c3ccccc3F)CC2)cc1` has a solubility kinetic of 19.5 µg/mL (≈ 56.3 µM). With `CC1(C)CCc2cc(CN3CCN(c4ccccn4)CC3)ccc2O1` the solubility kinetic was 47.5 µg/mL (≈ 141 µM). Compound `O=C(NC(=S)Nc1ccc([N+](=O)[O-])cc1O)C1CCCCC1` has a solubility kinetic of 3.5 µg/mL (≈ 10.8 µM). For `CN1CCN(c2oc(Cc3cccc4ccccc34)nc2C#N)CC1`, the solubility kinetic was 43.5 µg/mL (≈ 131 µM). `Cn1cnc(S(=O)(=O)Nc2ccccc2N2CCOCC2)c1` gave a solubility kinetic greater than 48.4 µg/mL. With `Cc1ccc(-c2cc(C(=O)N3CCCCCC3)no2)cc1` the solubility kinetic was 1.3 µg/mL (≈ 4.57 µM). In the case of `COc1cccc(/C=C/C(=O)N2CCN(c3ccccn3)CC2)c1`, the solubility kinetic is reported as greater than 48.5 µg/mL. With `O=C(COC(=O)c1cccc(F)c1)NCCC1=CCCCC1` the solubility kinetic was 9.5 µg/mL (≈ 31.1 µM). `COc1ccccc1N1CCN(C(=S)Nc2ccccc2)CC1` showed a solubility kinetic of 39.3 µg/mL (≈ 120 µM). For `Nc1ccc2nc(CCCCCCc3nc4ccc(N)cc4[nH]3)[nH]c2c1`, the solubility kinetic was greater than 52.3 µg/mL. `CCOC(=O)C1CCN(C(=O)COC(=O)CNC(=O)c2ccc(C(C)(C)C)cc2)CC1` showed a solubility kinetic greater than 64.9 µg/mL. In the case of `O=C1CNC(=O)/C(=C\c2ccc(F)cc2)N1`, the solubility kinetic is reported as 5 µg/mL (≈ 22.7 µM). Work on `Cc1nc(SCC(=O)NC2CCS(=O)(=O)C2)c2c3c(sc2n1)CCC3` (stereo not given) yielded a solubility kinetic of 7.3 µg/mL (≈ 18.4 µM). For `O=C(Cc1ccccc1[N+](=O)[O-])Nc1nccs1`, the solubility kinetic was 7.3 µg/mL (≈ 27.7 µM).
